Source: patent publication US12668600B2 (Kumquat Biosciences Inc., priority 2023, dated 2026)

How the values were obtained:
Type in all cases: biochemical
KRAS G12V = biological target: T1, KRAS G12V (Homo sapiens, UniProt P01116, G12V); assay: HTRF KRAS-SOS1 interaction assay, KRAS G12V; conditions: binned ≤2 μM / >2 μM, read-out: Inhibition of KRAS G12V (IC50)
T1 construct: made in house; host or cells: E. coli, e.g. BL21 (DE3)
In short: (§1)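 GST-tagged KRAS (WT or mutant) with anti-GST-Eu donor and His-hSOS1 with anti-6His-XL665 acceptor were combined in 5 mM HEPES pH 7.4, 150 mM NaCl, 1 mM DTT, 0.05% BSA, 0.0025% Igepal. After ~10 min, HTRF was read (ex 337, em 620/665 nm); IC50 from 665/620 ratio.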

KRAS WT = biological target: T2, KRAS WT (Homo sapiens, UniProt P01116); assay: HTRF KRAS-SOS1 interaction assay, wildtype KRAS; conditions: binned ≤2 μM / >2 μM, read-out: Inhibition of KRAS WT (IC50)
T2 construct: made in house; host or cells: E. coli, e.g. BL21 (DE3)
T2 sequence (P01116 1-188 isoform P01116-2): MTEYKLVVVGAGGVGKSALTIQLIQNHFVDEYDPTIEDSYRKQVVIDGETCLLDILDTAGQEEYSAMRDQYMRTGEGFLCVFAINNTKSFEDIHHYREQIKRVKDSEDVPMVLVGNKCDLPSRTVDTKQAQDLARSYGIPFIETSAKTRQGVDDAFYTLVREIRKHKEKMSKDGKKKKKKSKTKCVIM
In short: as §1

KRAS G12D = biological target: T3, KRAS G12D (Homo sapiens, UniProt P01116, G12D); assay: HTRF KRAS-SOS1 interaction assay, KRAS G12D; conditions: binned ≤2 μM / >2 μM, read-out: Inhibition of KRAS G12D (IC50)
T3 construct: made in house; host or cells: E. coli, e.g. BL21 (DE3)
T3 sequence (P01116 1-188 isoform P01116-2 G12D): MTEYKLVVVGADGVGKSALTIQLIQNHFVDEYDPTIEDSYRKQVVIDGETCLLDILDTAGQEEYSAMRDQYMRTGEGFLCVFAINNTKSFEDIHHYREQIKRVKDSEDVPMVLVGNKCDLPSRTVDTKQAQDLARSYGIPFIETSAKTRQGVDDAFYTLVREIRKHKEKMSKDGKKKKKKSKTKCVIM
In short: as §1

KRAS G12S = biological target: T4, KRAS G12S (Homo sapiens, UniProt P01116, G12S); assay: HTRF KRAS-SOS1 interaction assay, KRAS G12S; conditions: binned ≤2 μM / >2 μM, read-out: Inhibition of KRAS G12S (IC50)
T4 construct: made in house; host or cells: E. coli, e.g. BL21 (DE3)
T4 sequence (P01116 1-188 isoform P01116-2 G12S): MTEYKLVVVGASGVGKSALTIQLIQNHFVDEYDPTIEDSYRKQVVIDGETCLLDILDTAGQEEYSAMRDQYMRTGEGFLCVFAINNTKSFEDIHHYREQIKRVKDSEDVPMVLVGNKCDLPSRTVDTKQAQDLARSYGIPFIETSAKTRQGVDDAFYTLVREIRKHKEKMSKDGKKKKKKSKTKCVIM
In short: as §1

Measured: IC50

T1 sequence (P01116 1-188 isoform P01116-2 G12V): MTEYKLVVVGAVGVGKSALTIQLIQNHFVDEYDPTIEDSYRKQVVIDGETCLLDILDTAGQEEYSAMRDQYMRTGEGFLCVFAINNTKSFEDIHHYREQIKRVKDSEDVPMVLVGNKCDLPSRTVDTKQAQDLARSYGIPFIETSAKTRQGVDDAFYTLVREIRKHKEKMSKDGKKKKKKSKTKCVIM

C[C@H](c1cc(Cl)cnc1N)N1CCOc2c(C(F)(F)F)c(-c3ccc(F)c4sc(N)c(C#N)c34)c(F)c3nc(OCC4(CN5CC[C@@H](F)C5)CC4)nc1c23 [Compound 811, 2-amino-4-(4-((R)-1-(2-amino-5-chloropyridin-3-yl)ethyl)-10-fluoro-2-((1-(((R)-3-fluoropyrrolidin-1-yl)methyl)cyclopropyl)methoxy)-8-(trifluoromethyl)-5,6-dihydro-4H-[1,4]oxazepino[5,6,7-de]quinazolin-9-yl)-7-fluorobenzo[b]thiophene-3-carbonitrile]
≤ 2 µM: all assays above

CCO/N=C(\C)CCC[C@H](c1cccnc1N)N1CCOc2c(C(F)(F)F)c(-c3ccc(F)c4sc(N)c(C#N)c34)c(F)c3nc(OC[C@@]45CCCN4C[C@H](F)C5)nc1c23 [Compound 854, 2-amino-4-(4-((R,E)-1-(2-aminopyridin-3-yl)-5-(ethoxyimino)hexyl)-10-fluoro-2-(((2R,7aS)-2-fluorotetrahydro-1H-pyrrolizin-7a(5H)-yl)methoxy)-8-(trifluoromethyl)-5,6-dihydro-4H-[1,4]oxazepino[5,6,7-de]quinazolin-9-yl)-7-fluorobenzo[b]thiophene-3-carbonitrile]
≤ 2 µM: all assays above

CO[C@H]1CCN(C)[C@@H]1[C@H](C)Oc1nc2c3c(c(C(F)(F)F)c(-c4ccc(F)c5sc(N)c(C#N)c45)c(F)c3n1)OCCN2[C@H](C)c1cc(Cl)cnc1N [Compound 667, 2-amino-4-(4-((R)-1-(2-amino-5-chloropyridin-3-yl)ethyl)-10-fluoro-2-((S)-1-((2R,3S)-3-methoxy-1-methylpyrrolidin-2-yl)ethoxy)-8-(trifluoromethyl)-5,6-dihydro-4H-[1,4]oxazepino[5,6,7-de]quinazolin-9-yl)-7-fluorobenzo[b]thiophene-3-carbonitrile]
≤ 2 µM: all assays above

C[C@H](c1cc(F)cnc1N)N1CCOc2c(C(F)(F)F)c(-c3ccc(F)c4sc(N)c(C#N)c34)c(F)c3nc(OCC4(CN5CCC6(CC5)CC6(F)F)CC4)nc1c23 [Compound 841, 2-amino-4-(4-((R)-1-(2-amino-5-fluoropyridin-3-yl)ethyl)-2-((1-((1,1-difluoro-6-azaspiro[2.5]octan-6-yl)methyl)cyclopropyl)methoxy)-10-fluoro-8-(trifluoromethyl)-5,6-dihydro-4H-[1,4]oxazepino[5,6,7-de]quinazolin-9-yl)-7-fluorobenzo[b]thiophene-3-carbonitrile]
≤ 2 µM: all assays above

CO[C@H]1CCN(C)[C@@H]1[C@H](C)Oc1nc2c3c(c(C(F)(F)F)c(-c4ccc(F)c5sc(N)c(C#N)c45)c(F)c3n1)OCCN2[C@H](C)c1cc(F)cnc1N [Compound 630, 2-amino-4-(4-((R)-1-(2-amino-5-fluoropyridin-3-yl)ethyl)-10-fluoro-2-((S)-1-((2R,3S)-3-methoxy-1-methylpyrrolidin-2-yl)ethoxy)-8-(trifluoromethyl)-5,6-dihydro-4H-[1,4]oxazepino[5,6,7-de]quinazolin-9-yl)-7-fluorobenzo[b]thiophene-3-carbonitrile]
≤ 2 µM: all assays above

C[C@H](c1cccnc1N)N1C[C@H](C)Oc2c(C(F)(F)F)c(-c3ccc(F)c4sc(N)c(C#N)c34)c(F)c3nc(OC[C@@]45CCCN4C[C@H](F)C5)nc1c23 (single isomer, unassigned) [Compound 697]
≤ 2 µM: all assays above

C[C@H](c1cccnc1C(F)F)N1CCOc2c(C(F)(F)F)c(-c3ccc(F)c4sc(N)c(C#N)c34)c(F)c3nc(OC[C@@]45CCCN4C[C@H](F)C5)nc1c23 [Compound 747, 2-amino-4-(4-((R)-1-(2-(difluoromethyl)pyridin-3-yl)ethyl)-10-fluoro-2-(((2R,7aS)-2-fluorotetrahydro-1H-pyrrolizin-7a(5H)-yl)methoxy)-8-(trifluoromethyl)-5,6-dihydro-4H-[1,4]oxazepino[5,6,7-de]quinazolin-9-yl)-7-fluorobenzo[b]thiophene-3-carbonitrile]
≤ 2 µM: all assays above

C[C@H](c1cccnc1N)N1CCOc2c(C(F)(F)F)c(-c3cc(F)c(F)c4sc(N)c(C#N)c34)c(F)c3nc(OC[C@@]45CCCN4C[C@H](F)C5)nc1c23 (single isomer, unassigned) [Compound 853]
≤ 2 µM: all assays above

C[C@H](c1cccnc1N)N1CCOc2c(C(F)(F)F)c(-c3ccc(F)c4sc(N)c(C#N)c34)c(F)c3nc(OCC4(CN5[C@H](C)COC[C@@H]5C)CC4)nc1c23 (single isomer, unassigned) [Compound 763]
≤ 2 µM: all assays above

N#Cc1c(N)sc2c(F)ccc(-c3c(C(F)(F)F)c4c5c(nc(OC[C@@]67CCCN6C[C@H](F)C7)nc5c3F)N([C@H](CC3CCOCC3)c3cc(F)cnc3N)CCO4)c12 [Compound 634, 2-amino-4-(4-((R)-1-(2-amino-5-fluoropyridin-3-yl)-2-(tetrahydro-2H-pyran-4-yl)ethyl)-10-fluoro-2-(((2R,7aS)-2-fluorotetrahydro-1H-pyrrolizin-7a(5H)-yl)methoxy)-8-(trifluoromethyl)-5,6-dihydro-4H-[1,4]oxazepino[5,6,7-de]quinazolin-9-yl)-7-fluorobenzo[b]thiophene-3-carbonitrile]
≤ 2 µM: all assays above

C=C1CN2CCC[C@@]2(COc2nc3c4c(c(C(F)(F)F)c(-c5ccc(F)c6sc(N)c(C#N)c56)c(F)c4n2)OCCN3[C@H](C)c2cncnc2N)C1 [Compound 680, 2-amino-4-(4-((R)-1-(4-aminopyrimidin-5-yl)ethyl)-10-fluoro-2-(((S)-2-methylenetetrahydro-1H-pyrrolizin-7a(5H)-yl)methoxy)-8-(trifluoromethyl)-5,6-dihydro-4H-[1,4]oxazepino[5,6,7-de]quinazolin-9-yl)-7-fluorobenzo[b]thiophene-3-carbonitrile]
≤ 2 µM: all assays above

C[C@H](c1cc(Cl)cnc1N)N1CCOc2c(C(F)(F)F)c(-c3ccc(F)c4sc(N)c(C#N)c34)c(F)c3nc(OCC4(CN5CCC(F)CC5)CC4)nc1c23 [Compound 830, 2-amino-4-(4-((R)-1-(2-amino-5-chloropyridin-3-yl)ethyl)-10-fluoro-2-((1-((4-fluoropiperidin-1-yl)methyl)cyclopropyl)methoxy)-8-(trifluoromethyl)-5,6-dihydro-4H-[1,4]oxazepino[5,6,7-de]quinazolin-9-yl)-7-fluorobenzo[b]thiophene-3-carbonitrile]
≤ 2 µM: all assays above

C[C@H](c1cccnc1N)N1CCOc2nc(-c3ccc(F)c4sc(N)c(C#N)c34)c(F)c3nc(OC[C@@]45CCCN4C[C@H](F)C5)nc1c23 (single isomer, unassigned) [Compound 619]
≤ 2 µM: all assays above
